Data set [1] is described as follows: In vitro metabolic stability using human liver microsomes. As for the experimental part:
The metabolic stability of 15 GABAA receptor ligands using human liver microsomes was studied. The test articles were incubated at two concentrations (1 and 10 μM) and aliquots (100 μl) were removed at various time points (0, 15, 30 and 60 minutes), and analyzed by LC-MS/MS.
(§1) The test articles were incubated at two concentrations (1 and 10 μM) in 96-well plate format with active or heat-inactivated human liver microsomes and cofactors. Aliquots were removed at 0, 15, 30 and 60 minutes and mixed with acetonitrile containing internal standard for analysis. Samples were extracted and assayed using a liquid chromatography/tandem mass spectrometry (LC-MS/MS) analytical method.
Pooled human liver microsomes (Lot #38289, pool of 150 different male and female donor livers) were obtained from BD Biosciences Corporation (Woburn, Mass.). Microsomes were stored at ˜−135° C. until use.
(§2) The test articles (1 and 10 μM) were incubated with human liver microsomes (0.5 mg protein/ml) and appropriate cofactors (2.5 mM NADPH and 3.3 mM magnesium chloride) in 100 mM phosphate buffer, pH 7.4 (0.1% final DMSO), in a 37° C. water bath. Incubations with all compounds were initiated with the addition of microsomes. At selected time points (0, 15, 30 and 60 min), a single 100 μl aliquot was removed from each sample and mixed with 200 μl of chilled acetonitrile containing internal standard. Following brief vortexing and centrifugation, the samples were further diluted into a 96-well plate for subsequent LC-MS/MS analysis. All samples were assayed in duplicate.
(§3) Experimental controls consisted of: a) incubation of all components except test article for 0 and 60 min, b) incubation of midazolam (positive control) at 10 μM for 0, 15, 30 and 60 min, and c) incubation of 1 and 10 μM test article and 10 μM midazolam with heat-inactivated microsomes (0.5 mg protein/ml) for 0 and 60 min. All controls were assayed in duplicate.
Samples were analyzed by LC-MS/MS in multiple reaction monitoring mode using positive-ion electrospray ionization. The details of the LC-MS/MS method can be provided upon request.
(§4) Data from the metabolic stability assays were transferred to and processed in a Microsoft Excel spreadsheet. To determine metabolic stability, the percent remaining at each time point was calculated by dividing the peak area ratio of test article/internal standard at each time point by the peak area ratio at 0 min multiplied by 100.
(Liver microsomes are vesicles of endoplasmic reticulum, rich in cytochrome P450 enzymes.)

Data set [2] is described as follows: Incubation with heat-inactivated human liver microsomes (stability control). The following applies: 60 min. As for the experimental part: as §1, §2, §3, §4
A further data set deals with rhesus monkeys. Nature of the data set: Conflict procedure (anxiolytic and sedating effects) in rhesus monkeys. Format: in vivo. Conditions: i.v., cumulative dosing, data for one monkey (FIG. 14). An excerpt:
Other methods for evaluating compounds are known to those skilled in the art. For example, an assessment of anxiolytic effects of compounds can be accomplished objectively and quantitatively with operant-based conflict procedures, as described in Fischer et al. Neuropharmacology 59 (2010) 612-618. Briefly, behavior which is positively reinforced can be suppressed in these procedures by response-contingent administration of a noxious stimulus such as mild electric shock. […] The strength of conflict procedures is their predictive validity with respect to expected therapeutic effects in humans. Results from the Fischer et al. indicate that benzodiazepine-like drugs that have pharmacological activity for α2GABAA and/or α3GABAA receptors and low receptor activity at α 1GABAA and α5GABAA receptors may be useful, particularly as non-sedating anxiolytics. […]
Test sessions were conducted once or twice per week when monkeys reached stable performance, defined as the average rates of responding for component 1 and component 2 not varying by ±20% over five consecutive sessions, with no upward or downward trends. […] The dependent measure was the average rates of responding (responses/s), calculated by dividing responses by time during components 1 and 2, excluding responding during time outs or reinforcer delivery.

What is called melting point is the temperature, or range, at which the solid turns liquid.

Take `C#Cc1ccc2c(c1)C(c1ccccc1F)=NCc1c(C(=O)OCCCOC(=O)c3ncn4c3CN=C(c3ccccc3F)c3cc(C#C)ccc3-4)ncn1-2` [YT-III-271, Propane-1,3-Diyl-Bis-(8-Ethynyl-6-(2-Fluorophenyl)-4H-Benzo-[1]-Imidazo-[1,5-a]-[1,4]-Diazepine-3-Carboxylate)]: the “Mean % Remaining vs T = 0 min, Human Liver Microsomes” value in data set [1] (1 μM, 15 min) is listed as 97.1%; in data set [1] (1 μM, 30 min), 83.5%; in data set [1] (10 μM, 15 min), 104%; in data set [1] (10 μM, 30 min) it was 102%; in data set [1] (10 μM, 60 min) it was 91.1%. The “Mean % Remaining vs T = 0 min, with HI (Heat Inactivated) Microsomes” value (“Mean % Remaining vs T = 0 min, with HI” below) in data set [2] (1 μM) is recorded as 117%; in data set [2] (10 μM), 97.0%. In the data set on rhesus monkeys, the “anxiolytic effect (suppressed responding)” value is reported as “clearly anxiolytic”. Moreover, the “sedating effect (non-suppressed responding)” value in the data set on rhesus monkeys is given as “nonsedating”.
For `C#Cc1ccc2c(c1)C(c1ccccc1)=NCc1c(C(=O)OCCCOC(=O)c3ncn4c3CN(C)C(=O)c3cc(Cl)ccc3-4)ncn1-2`, the melting point was 179 to 184 °C. The “Mean % Remaining vs T = 0 min, Human Liver Microsomes” value in data set [1] (1 μM, 15 min) worked out at 87.3%. The “Mean % Remaining vs T = 0 min, Human Liver Microsomes” value in data set [1] (1 μM, 30 min) worked out at 39.4%. Also, the “Mean % Remaining vs T = 0 min, Human Liver Microsomes” value in data set [1] (10 μM, 15 min) worked out at 107%. In data set [1] (10 μM, 30 min), the “Mean % Remaining vs T = 0 min, Human Liver Microsomes” value was 104%. For the same compound, the “Mean % Remaining vs T = 0 min, Human Liver Microsomes” value in data set [1] (10 μM, 60 min) was determined as 82.8%. Besides, in data set [2] (1 μM), the “Mean % Remaining vs T = 0 min, with HI” value was determined as 141%. For the same compound, the “Mean % Remaining vs T = 0 min, with HI” value in data set [2] (10 μM) was found to be 114%.
On to `C#Cc1ccc2c(c1)C(c1ccccc1F)=NCc1c(C(=O)NC)ncn1-2` [HJ-I-037, 8-Ethynyl-N-methyl-6-(2-fluorophenyl)-4H-benzo[f]imidazo[1,5-a][1,4]diazepine-3-carboxamide], for which the melting point lay within 235 to 236 °C. Further, in data set [1] (1 μM, 15 min), the “Mean % Remaining vs T = 0 min, Human Liver Microsomes” value came out at 97.7%. In data set [1] (1 μM, 30 min), the “Mean % Remaining vs T = 0 min, Human Liver Microsomes” value was 99.5%. Also, the “Mean % Remaining vs T = 0 min, Human Liver Microsomes” value in data set [1] (1 μM, 60 min) came to 92.7%. Besides, in data set [1] (10 μM, 15 min), the “Mean % Remaining vs T = 0 min, Human Liver Microsomes” value came out at 96.8%. Further, in data set [1] (10 μM, 30 min), the “Mean % Remaining vs T = 0 min, Human Liver Microsomes” value was 103%. Besides, in data set [1] (10 μM, 60 min), the “Mean % Remaining vs T = 0 min, Human Liver Microsomes” value worked out at 103%. In addition, in data set [2] (1 μM), the “Mean % Remaining vs T = 0 min, with HI” value was found to be 117%. In addition, the “Mean % Remaining vs T = 0 min, with HI” value in data set [2] (10 μM) is 108%.
`C#Cc1ccc2c(c1)C(c1ccccn1)=NCc1c(C(=O)NC)ncn1-2` [HJ-I-40, 8-Ethynyl-N-methyl-6-(pyridine-2-yl)-4H-benzo[f]imidazo[1,5-a][1,4]diazepine-3-carboxamide] gave a melting point of 215 to 216 °C. Moreover, the “Mean % Remaining vs T = 0 min, Human Liver Microsomes” value in data set [1] (1 μM, 15 min) is 109%. Besides, the “Mean % Remaining vs T = 0 min, Human Liver Microsomes” value in data set [1] (1 μM, 30 min) is listed as 126%. In addition, the “Mean % Remaining vs T = 0 min, Human Liver Microsomes” value in data set [1] (1 μM, 60 min) is listed as 136%. Moreover, in data set [1] (10 μM, 15 min), the “Mean % Remaining vs T = 0 min, Human Liver Microsomes” value was 104%. Besides, in data set [1] (10 μM, 30 min), the “Mean % Remaining vs T = 0 min, Human Liver Microsomes” value amounted to 106%. In addition, the “Mean % Remaining vs T = 0 min, Human Liver Microsomes” value in data set [1] (10 μM, 60 min) is 110%. Besides, the “Mean % Remaining vs T = 0 min, with HI” value in data set [2] (1 μM) was determined as 110%. Further, the “Mean % Remaining vs T = 0 min, with HI” value in data set [2] (10 μM) came out at 110%.

These data come from patent US9597342B2 (UWM Research Foundation, Inc., priority 2011, dated 2017).
